The values that follow come from patent publication US5808109A, “Compounds that inhibit complement and/or suppress immune activity” (T Cell Sciences, Inc., priority 1995, dated 1998).

Where “and” joins values, the source holds several entries; their conditions need not be identical. Identical values can stand only once. Counter-ions that a name gives are not always drawn. Like-named read-outs stand apart in the source and are kept apart here.

In assay [1] the test system is alternative complement pathway. The assay can be described thus: Inhibition of alternative pathway mediated hemolysis, rabbit erythrocytes, human serum. Type of assay: biochemical. The conditions noted are these: Table XIV, human serum 1 in 24, read-out: Alternative pathway AH50. How it is done: The capacity of the substituted dihydrobenzofurans to inhibit the alternative complement pathway was assessed using the modified method of Platts-Mills and Ishizaka, 1974, J. Immunol., 113:348-358. Essentially, rabbit erythrocytes were lysed using human serum as complement in gelatin veronal buffer (GVB, Sigma, St. Louis, Mo.) with added EGTA (ethylene glycol-bis[β-aminoethyl ether]N,N,N^1,N^1 -tetraacetic acid) and Mg^2+ to 8 mM and 2 mM, respectively. Rabbit erythrocytes (4.5×10^6 cells/ml), human serum (1 in 24 dilution), and the compounds to be tested were incubated one hour at 37° C. in a V-bottom microtiter plate, cells pelleted by centrifugation, the supernatants transferred to a flat-bottom microtiter plate, and the absorbance at 410 nm determined. Samples were paired with identical controls lacking human serum (complement-independent lysis). Both samples and controls were run in triplicate. Control values were subtracted from sample values and the fractional inhibition was determined relative to the uninhibited (no added compound) sample. Results are reported as the concentration of compound yielding fifty per cent (50%) inhibition, AH50. The AH50 values for several of the compounds are included along with the results of other in vitro assays in Table XIV.

For the next assay, the system named is human complement. The assay can be described thus: Inhibition of complement-mediated hemolysis, human serum, sensitized sheep erythrocytes. In kind it is biochemical. The procedure: The ability to inhibit complement was also tested by assaying for inhibition of complement-mediated red cell lysis (hemolysis). The inhibition of hemolysis was determined as a function of compound concentration. The compounds to be tested were diluted in 0.1M Hepes buffer (0.15N NaCl, pH 7.4), and 50 μl were added to each well of a V-bottom microtiter plate. Human serum, used as the complement source, was diluted 1 to 500 in Hepes buffer, and 50 μl were added to each well. Next, commercially available sheep erythrocytes with anti-sheep antibody (Diamedix Cat. No. 789-001) were used as received and added at 100 μl/well to initiate the complement pathway leading to hemolysis. The plate was incubated for 60 minutes at 37° C. and then centrifuged at 500×g for 10 minutes. The supernatants were removed and placed in a flat-bottom microtiter plate. The extent of hemolysis was measured as a function of the sample absorbance at 410 nm. The maximal absorbance (corresponding to maximal hemolysis), Amax, was obtained from the absorbance value of an erythrocyte sample containing only human serum, AS, less the absorbance of a sample containing only the red cells, A0. Thus, Amax =AS -A0. The difference between the absorbance of an erythrocyte sample containing both human serum and inhibitive compound, and the absorbance of a cell sample containing inhibitive compound only, was defined as Asample. The inhibition, IH, was expressed as the fraction (Amax -Asample)/Amax, and IH50 was defined as the concentration of inhibitive compound required to produce a value of IH=1/2.
The 4 substituted spirobenzofuran compounds of example 7 and the disubstituted spirobenzofuran compounds of example 8 were tested for their capacity to inhibit complement-mediated lysis of sheep red blood cells (SRBC) as described in Section 6.6.2 supra with the modification that the human serum used as the complement source was diluted to 1 to 100 in Hepes buffer, instead of […]. The results of the hemolysis assays are shown in FIG. 8 and Tables XI and XII.

The subject of the next assay is rat complement. The assay can be described thus: Inhibition of complement-mediated hemolysis, rat serum as complement source. In kind it is biochemical. The conditions noted are these: Table XIII; read-out: IH50 for Rat Complement.
Assay [2] has as its system hyperacute graft rejection. The assay can be described thus: Guinea pig-to-rat cardiac transplant (discordant xenograft). In kind it is in vivo. The conditions noted are these: 28 mg/rat intravenous bolus; for Graft survival time: individual animals. How it is done: The effects of compounds 68 and 44a on hyperacute graft rejection were tested in a model of discordant xenografting. The methods were the same as described previously (Prewitt et al., 1991, Transplantation 52:868-873) except that the test compounds were substituted for the active agent (sCR1) of the earlier study. As indicated in the earlier study, male Lewis rats, 12-16 weeks of age, and male Hartley guinea pigs, 4-10 weeks of age (Charles River, Wilmington, Mass.) served as cardiac xenograft recipients and donors, respectively. Under Halothane anesthesia, heterotopic cardiac xenotransplantation was performed by a modification of the microvascular technique of Ono and Lindsey, 1990, J. Thorac. Cardiovas.
Cardiac xenografts were evaluated visually over the first 30 minutes following reperfusion and then, following abdominal closure, every 10 minutes by palpation until rejection. Rejection was defined as total cessation of cardiac xenograft contraction and was confirmed by direct visualization and histological examination. […] Control animals received similar volumes of PBS. Three (n=3) control animals were tested concurrent with the animals receiving compound 68; data from historic controls (n=13) subjected to the same procedure and previously reported (Pruitt et al., 1991, Transplantation 52:868-873) are also included for comparison. Table XV includes the xenograft survival times (minutes) for individual animals and the means and standard errors of the mean (SEM) for the various groups.

In another assay the target is T1, factor I (Homo sapiens, UniProt P05156).
T1 construct: purchased Cytotech, San Diego, Calif
T1 sequence (P05156 340-583 limits assumed): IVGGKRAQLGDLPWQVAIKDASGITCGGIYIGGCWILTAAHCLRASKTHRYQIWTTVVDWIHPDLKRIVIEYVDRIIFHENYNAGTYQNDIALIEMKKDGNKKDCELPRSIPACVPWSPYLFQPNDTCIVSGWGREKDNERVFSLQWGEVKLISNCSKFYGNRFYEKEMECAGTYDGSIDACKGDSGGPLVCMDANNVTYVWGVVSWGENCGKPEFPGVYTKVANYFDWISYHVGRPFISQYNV
The assay can be described thus: Inhibition of C3b proteolysis by factor I (SDS-PAGE densitometry). Type of assay: biochemical. The conditions noted are these: sCR1 8 nM as cofactor, C3b 1.2 μM, factor I 0.1 μM, 60 min 37° C.; read-out: C3b cleavage by Factor I, concentration yielding 50% inhibition. An excerpt:
The reactions were stopped by the addition of reducing SDS-PAGE sample buffer (Laemmli, 1970, Nature, 227:680-685) subjected to electrophoresis on 4-20% polyacrylamide gradient gels, visualized with Coomassie Blue stain, and quantitated by densitometry. Controls lacking factor I and controls with factor I but lacking test compounds were included. Results are reported as the concentration of test compound which inhibited approximately fifty percent (50%) of the C3b a-chain degradation, IC50.

The subject of the next assay is C3a production. The assay can be described thus: Inhibition of C3a production in human serum (aggregated IgG, RIA). Type of assay: biochemical. The conditions noted are these: at a concentration of about 8.5 mM. How it is done:
(§1) The ability to inhibit complement was tested by assaying for specific inhibition of C3a and C5a production. For all experiments, a single human serum pool, to be used as a source of complement, was aliquoted and stored frozen at -70° C. Human IgG was heat-aggregated, aliquoted, and stored frozen at -70° C. For each experiment, serum aliquots were equilibrated at 37° C. with varying concentrations of the compounds tested. The classical complement pathway was initiated by the addition of aggregated human IgG. Control samples containing no IgG were always included. After a fixed reaction time of 10 minutes (determined in an earlier time-course study to provide a convenient time interval during which the production of C5a or C3a is nearly complete, i.e., greater than 90%), the levels of the released complement peptides (C5a or C3a) were determined by radioimmunoassay using commercially available radioimmunoassay (RIA) kits (C5a RIA, UpJohn Cat. No. 3250-02; C3a RIA, UpJohn Cat. No. 3245-01; C5a RIA, Amersham Cat. No. RPA.520; C3a RIA, Amersham RPA.518).
(§2) Since a competitive immunoassay was used, complement peptide (C5a and C3a) concentrations varied inversely with the counts. The Counts Bound (CB) for a sample was defined as the total counts (in counts per minute, cpm) measured in the pellet minus the counts measured in a nonspecific binding (NSB) control. The NSB control was a sample containing only tracer peptide (^125 I-labelled) and second precipitating antiserum; it contained no C5a- or C3a-specific antiserum.
(§3) The y-axis in FIG. 2 represents the fraction inhibition. The fraction inhibition is equal to the Counts Bound (CB) for a "sample," less the CB in the "sample with no added compound," divided by the CB for the "no IgG control" less the CB in the "sample with no added compound." [formula]
(§4) FIG. 2 is representative of the data plots obtained from the assays described above.

In assay [3] the test system is guinea pig serum complement. The conditions noted are these: sensitized sheep erythrocytes, read-out: concentration reducing hemolysis 50%; cited from earlier work.
Assay [4] has as its system human peripheral blood lymphocytes (PBL). The assay can be described thus: Inhibition of proliferation of peripheral blood lymphocytes, 3H-thymidine incorporation. In kind it is cell-based. The conditions noted are these: Lymphocyte, Table IX, 72 h. How it is done: The proliferation of human peripheral blood lymphocytes (PBL) in response to phytohemagglutinin (PHA, Well-come) or anti-CD3 monoclonal antibody (OKT-3, Ortho) was assessed by the incorporation of ^3 H-thymidine. Compound 11a was diluted in culture media to the desired concentrations, human PBL were added to a final concentration of 10^6 cells/ml, and then either PHA (Wellcome) or anti-CD3 (OKT3, Ortho) antibody (final concentration, […]) was added to initiate proliferation. The final volume per sample was 100 μl. The cells were incubated for 72 hours after stimulation, pulsed with 1 μCi ^3 H-thymidine per sample for 4 hours, harvested, and counted in a scintillation counter. […] Because cell viability was unaffected by the presence of 11a (see supra), the inhibition apparently was not due to cytotoxic effects.

The test system of the next assay is C5a production. The assay can be described thus: Inhibition of C5a production in human serum (aggregated IgG, RIA). Type of assay: biochemical. The conditions noted are these: concentration inhibiting C5a production 50% relative to control. The procedure:
as §1, §2, §3, §4

The mark [5] stands for this setting: Table XI, human serum diluted 1 to 100, read-out: IH50 Mean.
Setting [6] is: Table XII, human serum diluted 1 to 100, read-out: IH50 Mean.
[7] abbreviates: Table XIII, read-out: IH50 for Human Complement.
The mark [8] stands for this setting: Table XIV, read-out: Classical pathway IH50.

`COc1cc(C(=O)O)cc2c1CC1(CCCCC1)O2` [Compound 44a, 6-CARBOXYL-4-METHOXYSPIRO[BENZOFURAN-2(3H)-CYCLOHEXANE] SODIUM SALT]: the IC50 in assay [1] is greater than 5030 µM; in the assay with human complement (setting [5]), 530 µM; in the assay on human complement (setting [6]) it was 532 µM; with human complement (setting [7]), 538 µM; with human complement (setting [8]), 530 µM; in the assay with rat complement it was 17300 µM. The IC50 on factor I is 2740 µM. The “Graft survival time Mean ± SEM” value in [2] is 8 min. In addition, the Graft survival time in assay [2] (SODIUM SALT) was 7 min and 9 min.
With `COc1cc(C(=O)O)c(C=O)c2c1CC1(CCCCC1)O2` [Compound 68, 6-carboxy-7-formyl-4-methoxyspiro[benzofuran-2(3H)-cyclohexane]], the IC50 in assay [1] is 1360 µM; with human complement (setting [5]) it was 164 µM; in the assay with human complement (setting [7]), 100 µM and 164 µM; in the assay on human complement (setting [8]) it was 160 µM; at factor I it was 150 µM. Moreover, the “effectiveness in inhibiting complement-mediated hemolysis compared with K76COOH” value in the assay with human complement is recorded as “more effective”. In assay [2], the “Graft survival time Mean ± SEM” value turned out to be 142 ± 76 min. Further, the “graft survival relative to controls” value in assay [2] is given as “prolonged graft survival times in 2 of the 3 animals”. Besides, the Graft survival time in assay [2] is 7 min and 150 min and 270 min.
Consider `CC1CCC2C(C)(C)C(O)C(O)CC2(C)C12Cc1c(O)cc(C(=O)O)c(C=O)c1O2` (stereo not shown) [K76COOH, reference compound], for which the IC50 was 850 µM in assay [1]; 570 µM in the assay with human complement (setting [5]); 570 µM in the assay with human complement (setting [6]); 570 µM in the assay on human complement (setting [8]); 110 µM on factor I.
With `CC1CCC2C(C)(C)C(O)C(O)CC2(C)C12Cc1c(O)cc(C(=O)O)c(C=O)c1O2` (stereo not shown) [K-76 COONa, reference compound], the “inhibition of C3a production” value in the assay with C3a production was “Only marginal inhibition”. Moreover, the IC50 in [3] was 341 µM; in assay [4] (PHA stimulation, read-out: IP50 PHA-stimulated PBL), 500 µM; in assay [4] (anti-CD3 (OKT-3) stimulation, read-out: IP50 OKT-3-stimulated PBL), 500 µM; in the assay on human complement (Table VII, human serum, read-out: IHO50) it was 570 µM; in the assay on C5a production, 3000 µM.
“sCR1: soluble human recombinant complement receptor type 1, used as a positive control in the in vitro assays”: the figures for the IC50 with human complement (setting [7]) and with rat complement were 0.0009 µM and 0.0015 µM, respectively.
